The source made the active and inactive calls. No rule for the calls is given here.
Target: Complement C1s subcomponent (Homo sapiens) (UniProt P09871)
Assay: concentration-response of complement C1s inhibitors – biochemical, dose response (AID 787)
Conditions: purified C1s enzyme, fluorogenic substrate, FU read-out

Chain of Complement C1s subcomponent (Homo sapiens) (P09871 16-437 limits assumed): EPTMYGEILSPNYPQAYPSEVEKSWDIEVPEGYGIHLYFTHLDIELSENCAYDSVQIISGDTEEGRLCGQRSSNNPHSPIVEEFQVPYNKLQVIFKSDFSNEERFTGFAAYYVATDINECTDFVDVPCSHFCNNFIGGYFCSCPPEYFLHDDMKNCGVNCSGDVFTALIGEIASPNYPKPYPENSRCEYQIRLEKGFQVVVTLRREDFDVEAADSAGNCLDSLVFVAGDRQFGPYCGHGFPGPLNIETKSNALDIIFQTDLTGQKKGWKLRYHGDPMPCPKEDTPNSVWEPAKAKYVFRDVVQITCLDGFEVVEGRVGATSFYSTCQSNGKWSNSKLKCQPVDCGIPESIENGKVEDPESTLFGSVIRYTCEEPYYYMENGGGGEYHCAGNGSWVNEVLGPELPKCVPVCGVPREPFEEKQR
Chain of Complement C1s subcomponent (Homo sapiens) (P09871 438-688 limits assumed): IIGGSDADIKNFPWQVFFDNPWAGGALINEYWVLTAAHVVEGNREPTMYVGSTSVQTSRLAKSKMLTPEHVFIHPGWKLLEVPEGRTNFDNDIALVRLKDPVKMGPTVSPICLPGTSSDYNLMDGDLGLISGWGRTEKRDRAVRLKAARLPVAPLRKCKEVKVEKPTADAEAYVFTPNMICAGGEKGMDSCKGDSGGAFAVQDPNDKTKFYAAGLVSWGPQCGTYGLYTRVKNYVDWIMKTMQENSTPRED

Row | IC50 | Structure (SMILES)
1 | > 50 µM (inactive) | CCOC(=O)N1CC=C2C(C#N)=C(N)C(C#N)(C#N)[C@H](c3ccccc3OCC)[C@H]2C1
2 | > 50 µM (inactive) | O=C1CCCC2=C1C1(CCCCC1)N=C(Nc1nc3ccccc3o1)N2
3 | > 50 µM (inactive) | COc1cccc(C2=CC(c3cccc(OC)c3OC)n3nnnc3N2)c1 (centres undefined)
4 | > 50 µM (inactive) | COc1ccc(NC(=O)CSC2=C(C#N)C(c3ccco3)C3=C(CCCC3=O)N2)c(OC)c1 (centres undefined)
5 | > 50 µM (inactive) | Cc1cccc(COc2ccc(/C(O)=C3\C(=O)C(=O)N(CCN(C)C)C3c3ccncc3)cc2)c1 (centres undefined)
6 | > 50 µM (inactive) | CCOc1ccc(N2C(=O)CC(N3CCN(c4ccccc4F)CC3)C2=O)cc1 (centres undefined)
7 | > 50 µM (inactive) | O=C(Oc1ccc(Cl)cc1N1C(=O)CCC1=O)c1ccco1
8 | > 50 µM (inactive) | O=C1CCCC(O)=C1C=NCCc1ccccc1
9 | > 50 µM (inactive) | COC(=O)Cc1[nH]nc2c1C1(C(=O)N(Cc3ccccc3)c3ccccc31)C(C#N)=C(N)O2 (centres undefined)

Source: PubChem BioAssay AID787 (PCMD, 2007)
